According to patent publication US10213451B2, “Methods and compounds for modulating the secretion or expression of adhesion proteins or angiopoietins of cells” (PACIFIC ARROW LIMITED, priority 2004, dated 2019):

Experiments:
Assay type in all cases: cell-based, human
[1] = tested on: integrin expression in ES2 cells; test: Microarray gene expression, Table 6
Method: (§1) Y/D is the ratio (in folds) of gene expression in cells treated with compound Y as compared with those of the no drug control (D),
(§2) YM/D is the ratio of gene expression in cells treated with compound YM (ACH-Y, Y without sugar moiety) compared with those of the no drug control (D)
(§3) Cell culture and drug-treatment.: ES2 cells were seeded in a T-25 flask with 4.5 million cells per flask for 24 hours. Cell culture was replaced with fresh medium with xanifolia-Y (Y) or DMSO no drug control (D) for 24 hours. Cells were then harvested for RNA isolation. Three experiments were done.
(§4) RNA extraction, labeling, hybridization, and data analysis. RNA was extracted from tumor cells using the Qiagen RNeasy Kit. RNA quality and quantity was checked by the Agilent BioAnalyzer and the NanoDrop® ND-1000 spectrophotometer respectively before further manipulation. The first and second cDNA strands were synthesized from 20 ng of total RNA using the Affymetrix T7 oligo(dT) primer protocol and kit for the two-cycle amplification. To produce amplified biotin-labeled-cRNA, the cDNA was […] by in vitro transcription using the MegaScript kit from Ambion. 15.0 μg of the labeled cRNA was fragmented and re-checked for concentration using the NanoDrop® ND-1000 spectrophotometer. A hybridization cocktail containing Affymetrix spike-in controls and fragmented labeled cRNA was loaded onto the Human U133 Plus 2.0 GeneChip® oligonucleotide array. The Affymetrix array (Affymetrix, Inc. Santa Clara, Calif.) is comprised of over 1,300,000 unique oligonucleotide features that represent greater than 38,500 well-substantiated human genes. The array was hybridized for 16 hours at 45° C. with rotation at 60 rpm then washed and stained with a strepavidin, R-phycoerythrin conjugate stain on the Affymetrix Fluidicis Station 450. Signal amplification was done using biotinylated antistreptavidin. The arrays were scanned using the GeneChip® 3000 confocal laser scanner with autoloader. The images were analyzed and quality control metrics recorded using Affymetrix GCOS software version 1.4. Lastly, the expression value for each gene was calculated using dChip PM-only model based or Plier algorithm.
(§5) Pairwise comparisons were made as follows: Treated vs. Control (Y vs. D), Modified Drug vs Control (YM/ACY-H vs. D) and Treated vs. Modified Drug (Y vs. YM/ACH-Y) Cel files analyzed using the Bioconductor package of R Statistical programming. Limma analysis generated a reasonable number of changing genes between the samples.
(§6) The raw data in the .CEL files were normalized by the GCRMA method (robust multi-array analysis). It is implemented in Bioconductor (http://www.bioconductor.org/). The raw signal intensity data were normalized, background corrected and summarized based on certain statistical models, and an expression value, in log 2-scale, is obtained per chip per probe set. Then the null hypothesis was tested that there's no significant changes in gene expression between the treatment pairs. This was done by LIMMA and is also implemented in Bioconductor. It uses empirical Bayes method to estimate the variance in gene expression. One comparison was made, namely, High Grade vs. Low Grade. The raw p-values were adjusted by the Benjamnin-Hochberg method for false discovery rate (FDR) control. All data sets contained a significant number of genes with a p-value less than 0.05, which is that the probability that a gene is NOT differential expressed (false positive) is 1:20.

[2] = tested on: myosin expression in ES2 cells; test: Microarray gene expression, Table 7
Method: as §1, §2, §3, §4, §5, §6

[3] = tested on: cadherins expression in ES2 cells; test: Microarray gene expression, Table 8
Method: as §1, §2, §3, §4, §5, §6

[4] = tested on: tenascin-C expression in ES2 cells; test: Microarray gene expression, Table 9; conditions: probe 201645_at
Method: as §1, §2, §3
(§7) RNA extraction, labeling, hybridization, and data analysis. RNA was extracted from tumor cells using the Qiagen RNeasy Kit. RNA quality and quantity was checked by the Agilent BioAnalyzer and the NanoDrop® ND-1000 spectrophotometer respectively before further manipulation. […] The images were analyzed and quality control metrics recorded using Affymetrix GCOS software version 1.4. Lastly, the expression value for each gene was calculated using dChip PM-only model based or Plier algorithm.
(§8) Pairwise comparisons were made as follows: Treated vs. Control (Y vs. D), Modified Drug vs Control (YM/ACY-H vs. D) and Treated vs. Modified Drug (Y vs. YM/ACH-Y) Cel files analyzed using the Bioconductor package of R Statistical programming. […]

[5] = tested on: CD54 expression in ES2 cells; test: Microarray gene expression, Table 11; conditions: probe 202638_s_at
Method: as §1, §2, §3, §7, §8

[6] = tested on: potassium channel, subfamily U, protein expression in ES2 cells; test: Microarray gene expression, Table 18; conditions: probe 237273_at
Method: as §1, §2, §3, §7, §8

[7] = tested on: phosphatase, protein expression in ES2 cells; test: Microarray gene expression, Table 19
Method: as §1, §2, §3, §4, §5, §6

[8] = tested on: Fibronectin secretion from skin SK-Mel-5 cells; test: Fibronectin secretion (Western blot), SK-MEL-5 cells; conditions: Homo sapiens, 30 ug/ml

With `C/C=C(/C)C(=O)O[C@H]1[C@H](OC(=O)/C(C)=C\C)[C@@]2(CO)C(CC1(C)C)C1=CCC3[C@@]4(C)CC[C@H](O)C(C)(C)C4CC[C@@]3(C)[C@]1(C)[C@@H](O)[C@H]2O` (some centres unmarked) [ACH-Y] the “ITGAV integrin, alpha V (vitronectin receptor), gene expression ratio to no drug control (D)” value ([1]; probe 202351_at) was −1.3 folds, the “ITGBL1 Integrin, beta-like 1, gene expression ratio to no drug control (D)” value ([1]; probe 205422_s_at) was −2.0 folds and the “ITGA4 integrin, alpha 4, gene expression ratio to no drug control (D)” value ([1]; probe 205884_at) was −1.7 folds. For the same compound, the “ITGA4 integrin, alpha 4, gene expression ratio to no drug control (D)” value ([1]; probe 205885_s_at) was −2.0 folds, the “ITGA4 integrin, alpha 4, gene expression ratio to no drug control (D)” value ([1]; probe 213416_at) was −1.7 folds and the “ITGB5 Integrin, beta 5, gene expression ratio to no drug control (D)” value ([1]; probe 214021_x_at) was −2.2 folds. The “ITGBL1 Integrin, beta-like 1, gene expression ratio to no drug control (D)” value ([1]; probe 214927_at) was −1.8 folds, the “ITGA6 integrin, alpha 6, gene expression ratio to no drug control (D)” value ([1]; probe 215177_s_at) was 1.1 folds and the “CD47 antigen (integrin-associated signal transducer), gene expression ratio to no drug control (D)” value ([1]; probe 227259_at) was −1.1 folds. For the same compound, the “ITGB2 integrin, beta 2, gene expression ratio to no drug control (D)” value ([1]; probe 1555349_a_at) was −1.4 folds, the “ITGBL1 Integrin, beta-like 1, gene expression ratio to no drug control (D)” value ([1]; probe 1557080_s_at) was −2.5 folds and the “expression ratio to the control, integrin family” value ([1]; span over probes of Table 6) was −1.1 to −2.5 folds. For the same compound, the “MYLK myosin, light polypeptide kinase, gene expression ratio to no drug control (D)” value ([2]; probe 202555_s_at) was −1.2 folds, the “MYO6 myosin VI, gene expression ratio to no drug control (D)” value ([2]; probe 203215_s_at) was −1.6 folds and the “MYO5A myosin VA, gene expression ratio to no drug control (D)” value ([2]; probe 204527_at) was −1.2 folds. The “MYH9 myosin, heavy polypeptide 9, non-muscle, gene expression ratio to no drug control (D)” value ([2]; probe 211926_s_at) was −1.2 folds, the “MYO1D myosin ID, gene expression ratio to no drug control (D)” value ([2]; probe 212338_at) was −2.1 folds and the “MYH10 myosin, heavy polypeptide 10, non-muscle, gene expression ratio to no drug control (D)” value ([2]; probe 212372_at) was −1.4 folds. The “MYLK myosin, light polypeptide kinase, gene expression ratio to no drug control (D)” value ([2]; probe 224823_at) was −1.4 folds, the “MYO1C Myosin IC, gene expression ratio to no drug control (D)” value ([2]; probe 225080_at) was −1.4 folds and the “expression ratio to the control, myosin family” value ([2]; span over probes of Table 7) was −1.2 to −2.1 folds. For the same compound, the “CTNNB1 catenin (cadherin-associated protein), beta 1, 88 kDa, gene expression ratio to no drug control (D)” value ([3]; probe 201533_at) was 1.2 folds, the “CTNNAL1 catenin (cadherin-associated protein), alpha-like 1, gene expression ratio to no drug control (D)” value ([3]; probe 202468_s_at) was −1.6 folds and the “CDH2 cadherin 2, type 1, N-cadherin (neuronal), gene expression ratio to no drug control (D)” value ([3]; probe 203440_at) was 1.0 folds. The “CDH5 cadherin 5, type 2, VE-cadherin, gene expression ratio to no drug control (D)” value ([3]; probe 204677_at) was −1.1 folds, the “CDH13 cadherin 13, H-cadherin (heart), gene expression ratio to no drug control (D)” value ([3]; probe 204726_at) was −1.7 folds and the “CDH12 cadherin 12, type 2 (N-cadherin 2), gene expression ratio to no drug control (D)” value ([3]; probe 207149_at) was −2.2 folds. For the same compound, the “CTNND1 catenin (cadherin-associated, protein), delta 1, gene expression ratio to no drug control (D)” value ([3]; probe 208407_s_at) was −1.7 folds, the “CTNNA1 catenin (cadherin-associated protein), alpha 1, 102 kDa, gene expression ratio to no drug control (D)” value ([3]; probe 210844_x_at) was −1.2 folds and the “CDH13 cadherin 13, H-cadherin (heart), gene expression ratio to no drug control (D)” value ([3]; probe 244091_at) was −1.7 folds. For the same compound, the “TNC Tenascin C (hexabrachion), gene expression ratio to no drug control (D)” value [4] was 1.0 folds, the “ICAM1 intercellular adhesion molecule 1 (CD54), gene expression ratio to no drug control (D)” value [5] was 2.3 folds and the “KCNU1 potassium channel, subfamily U, member 1, gene expression ratio to no drug control (D)” value [6] was −1.9 folds. For the same compound, the “PPP1R15A protein phosphatase 1, regulatory (inhibitor) subunit 15A, gene expression ratio to no drug control (D)” value ([7]; probe 37028_at) was 5.6 folds, the “PPP1R15A protein phosphatase 1, regulatory (inhibitor) subunit 15A, gene expression ratio to no drug control (D)” value ([7]; probe 202014_at) was 6.2 folds and the “DUSP10 dual specificity phosphatase 10, gene expression ratio to no drug control (D)” value ([7]; probe 215501_s_at) was 7.1 folds. For the same compound, the “DUSP10 dual specificity phosphatase 10, gene expression ratio to no drug control (D)” value ([7]; probe 221563_at) was 5.7 folds and the inhibition at 30 µg/mL [8] was 21%.
